Test results reported in patent US6359111B1, “Opioid receptor targeting” (NeoRx Corporation, priority 1998, dated 2002).
Values joined by “and” are separate entries in the source; they are usually repeats but may differ in a detail not shown here. Equal entries are not always repeated.

Target: T1, Delta-Opioid Receptor (Mus musculus, UniProt P32300)
T1 construct: host or cells: NG108-15
Assay: Delta-opioid receptor binding: inhibition of specific binding of 3H NID to intact NG108-15 cells
Settings: for EC50: EC50 (M), competition with 3H NID, intact NG108-15 cells, 2 hr at 37° C.
Protocol: To do so, 1 to 4 serial dilutions of test compounds and naltrindole (NID, Sigma) are prepared to generate solutions with concentrations ranging from 10^−3 to 10^−14 M in 50 mM Tris buffer, pH 7.5. ^3H NID (American Radiolabeled Chemicals, St. Louis, Mo., specific activity 49 dpm/10^−15 mol) is prepared in Tris at a concentration of 10^−9 M. Cultured cells of the neruablastoma/glioblastoma hybrid cell line NG108-15 (American Type Culture Collection) are briefly trypsinized, washed with media, and resuspended at 6×10^5 cells/mL. 20 μL of test compound or NID solution and 20 μL of ^3H NID are added to each of 96 wells of a Multiscreen assay system (Millipore) MAFB. 160 μL of cell suspension in Dulbecco's MEM+HAT with 10% Fetal Bovine Serum are added. The reactions are allowed to equilibrate 2 hr at 37° C., vacuum filtered, washed 2× with 200 μL ice cold Tris buffer and air dried. The filters are punched out of the plate into scintillation vials and mixed on a shaker overnight before counting.
Data is analyzed by the Prism software package (GraphPad Software, Inc., San Diego, Calif.) using a non-linear curve fit routine for one site competitive binding.

T1 sequence (P32300 whole entry): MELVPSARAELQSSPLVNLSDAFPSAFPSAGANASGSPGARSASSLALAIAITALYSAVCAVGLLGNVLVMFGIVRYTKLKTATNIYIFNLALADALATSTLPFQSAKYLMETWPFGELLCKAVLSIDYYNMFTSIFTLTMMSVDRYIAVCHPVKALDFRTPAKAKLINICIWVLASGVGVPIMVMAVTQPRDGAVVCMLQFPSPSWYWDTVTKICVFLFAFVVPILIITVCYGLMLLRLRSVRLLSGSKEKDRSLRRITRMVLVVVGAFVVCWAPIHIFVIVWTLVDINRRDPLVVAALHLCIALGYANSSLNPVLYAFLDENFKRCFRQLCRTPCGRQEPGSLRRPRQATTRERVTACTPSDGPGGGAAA

O=C(O)CN1CCN(CC(=O)O)CCN(CC(=O)O)C(Cc2ccc(NC(=O)CCCCCNC(=O)Cn3c4c(c5ccccc53)CC3(O)C5Cc6ccc(O)c7c6C3(CCN5CC3CC3)C4O7)cc2)CN(CC(=O)O)CC1 (stereo not shown) [NID-DOTA]
EC50: 1.2e-08 M
Test/Control (ratio of EC50 of test compound to EC50 of NID in the same test): 2.8
fold lower in affinity than NID (summary of Table 1): about 3 fold

Oc1ccc2c3c1O[C@H]1c4[nH]c5ccccc5c4C[C@@]4(O)[C@@H](C2)N(CC2CC2)CC[C@]314 [NID, naltrindole, reference compound]
EC50: 4.2e-09 M and 1.8e-09 M
